Consider 28 molecules from US8440710B2, “HSL inhibitors useful in the treatment of diabetes” (Hoffmann-La Roche Inc., priority 2009, dated 2013).

The experiment concerns the target T1, human HSL (Homo sapiens, UniProt Q05469).
T1 construct: generate a full length human HSL ORF with a 3′-His6 tag; made in house; host or cells: High 5 insect cells (baculovirus, pFast-BAC)
T1 sequence (Q05469 1-1076): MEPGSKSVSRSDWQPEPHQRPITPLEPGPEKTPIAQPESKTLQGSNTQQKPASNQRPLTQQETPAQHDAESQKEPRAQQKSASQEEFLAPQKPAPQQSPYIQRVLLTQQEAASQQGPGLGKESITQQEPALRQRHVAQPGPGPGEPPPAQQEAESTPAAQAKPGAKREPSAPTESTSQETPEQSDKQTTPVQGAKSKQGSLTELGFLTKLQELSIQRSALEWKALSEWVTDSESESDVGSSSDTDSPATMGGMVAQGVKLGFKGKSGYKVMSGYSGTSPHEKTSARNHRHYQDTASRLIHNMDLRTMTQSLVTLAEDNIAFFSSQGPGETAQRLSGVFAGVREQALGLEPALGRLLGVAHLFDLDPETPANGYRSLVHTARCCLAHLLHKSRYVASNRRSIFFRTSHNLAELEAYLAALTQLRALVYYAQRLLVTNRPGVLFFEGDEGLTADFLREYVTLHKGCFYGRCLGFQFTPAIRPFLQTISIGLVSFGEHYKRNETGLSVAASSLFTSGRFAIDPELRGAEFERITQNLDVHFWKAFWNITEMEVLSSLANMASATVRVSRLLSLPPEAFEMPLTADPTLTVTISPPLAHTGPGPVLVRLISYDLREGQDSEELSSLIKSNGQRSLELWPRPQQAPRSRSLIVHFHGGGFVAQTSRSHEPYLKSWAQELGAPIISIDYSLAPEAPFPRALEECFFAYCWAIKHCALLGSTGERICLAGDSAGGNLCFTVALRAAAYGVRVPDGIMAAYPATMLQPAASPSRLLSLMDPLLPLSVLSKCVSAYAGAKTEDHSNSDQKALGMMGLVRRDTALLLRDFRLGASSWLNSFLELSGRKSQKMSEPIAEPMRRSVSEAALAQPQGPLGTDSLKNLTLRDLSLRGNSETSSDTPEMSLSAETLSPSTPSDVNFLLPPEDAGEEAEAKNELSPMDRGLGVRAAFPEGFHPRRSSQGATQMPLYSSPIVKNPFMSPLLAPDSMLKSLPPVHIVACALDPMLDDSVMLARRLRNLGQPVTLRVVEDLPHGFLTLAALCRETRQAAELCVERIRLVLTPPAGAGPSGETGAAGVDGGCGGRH
In words: Human Hormone-Sensitive Lipase (HSL) enzyme inhibition assay (colorimetric, DMPT substrate). The conditions noted are these: human full length HSL-His6, 2,3-dimercapto-1-propanol tributyrate substrate, 37° C. 20 minutes, absorbance at 405 nm; read-out: HSL hum IC50. In kind it is biochemical. The procedure, abridged: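 Full-length human HSL with C-terminal His6, expressed in baculovirus-infected High 5 cells and Ni-NTA purified, was added (15 ug/ml stock) to 1.5 mM DMPT in 100 mM MOPS pH 7.2, 0.2 mg/ml fatty acid-free BSA containing compound. After 20 min at 37 °C, DTNB with SDS/Triton X-100 was added; A405 read after 15 min at RT.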
In the case of `COC[C@]1(O)CC[C@@]2(CCN(c3ccc(OC(F)(F)F)cc3)C2=O)CC1` [Example 115, (5α,8β)-8-Hydroxy-8-methoxymethyl-2-(4-trifluoromethoxy-phenyl)-2-aza-spiro[4.5]decan-1-one], the IC50 amounted to 0.68 µM.

Turning to `C=C(C)[C@]1(O)CC[C@]2(CCN(c3ccc(OCC(F)(F)F)cc3)C2=O)CC1` [Example 105, (5α,8α)-8-Hydroxy-8-(prop-1-en-2-yl)-2-(4-(2,2,2-trifluoroethoxy)phenyl)-2-aza-spiro[4.5]decan-1-one], the IC50 was found to be 0.03 µM.

With `CC[C@]1(O)CC[C@]2(CCN(c3ccc4c(c3)OC(F)(F)O4)C2=O)CC1` [Example 337, (5α,8α)-2-(2,2-Difluoro-benzo[1,3]dioxol-5-yl)-8-ethyl-8-hydroxy-2-aza-spiro[4.5]decan-1-one], the concentration for half-maximal inhibition (IC50) turned out to be 0.08 µM.

In the case of `CCC[C@]1(O)CC[C@]2(CCN(c3ccc([C@H](O)C(F)(F)F)cc3)C2=O)CC1` [Example 133a, (5α,8α)-8-Hydroxy-8-propyl-2-[4-((S)-2,2,2-trifluoro-1-hydroxy-ethyl)-phenyl]-2-aza-spiro[4.5]decan-1-one], the IC50 stood at 0.05 µM.

Take `O=C1N(c2ccc(OCCC(F)(F)F)cc2)CC[C@]12CC[C@@H](O)CC2` [Example 98, (5α,8β)-8-Hydroxy-2-[4-(3,3,3-trifluoro-propoxy)-phenyl]-2-aza-spiro[4.5]decan-1-one]: the IC50 is 2.5 µM.

On to `CCc1ccc(N2CC[C@]3(CC[C@@](O)(COC)CC3)C2=O)cc1` [Example 224, (5α,8α)-2-(4-Ethyl-phenyl)-8-hydroxy-8-methoxymethyl-2-aza-spiro[4.5]decan-1-one], for which the IC50 came to 0.15 µM.

In the case of `O=C1N(c2ccc(CC(F)(F)F)cc2)CC[C@]12CC[C@](O)(COCC(F)(F)F)CC2` [Example 286, (5α,8β)-8-Hydroxy-8-(2,2,2-trifluoro-ethoxymethyl)-2-[4-(2,2,2-trifluoro-ethyl)-phenyl]-2-aza-spiro[4.5]decan-1-one], the half-inhibitory concentration (IC50) came out at 0.19 µM.

Turning to `O=C1N(c2ccc(OC(F)(F)F)cc2)CC[C@]12CC[C@@H](Oc1cnccn1)CC2` [Example 19, (5α,8β)-8-(Pyrazin-2-yloxy)-2-(4-trifluoromethoxy-phenyl)-2-aza-spiro[4.5]decan-1-one], the IC50 came out at 0.14 µM.

`C[C@H](Oc1ccc(N2CC[C@]3(CC[C@](O)(COCC(F)(F)F)CC3)C2=O)cn1)C(F)(F)F` [Example 280, (5α,8β)-8-Hydroxy-8-(2,2,2-trifluoro-ethoxymethyl)-2-[6-((S)-2,2,2-trifluoro-1-methyl-ethoxy)-pyridin-3-yl]-2-aza-spiro[4.5]decan-1-one]: the IC50 was 0.98 µM.

For `CCC[C@]1(O)CC[C@]2(CCN(c3ccc(CC(F)(F)F)cc3)C2=O)CC1` [Example 81, (5α,8α)-8-Hydroxy-8-propyl-2-[4-(2,2,2-trifluoro-ethyl)-phenyl]-2-aza-spiro[4.5]decan-1-one], the IC50 amounted to 0.02 µM.

Regarding `CC[C@]1(O)CC[C@]2(CCN(c3ccc(OC(C)C)cc3)C2=O)CC1` [Example 186, (5α,8α)-8-Ethyl-8-hydroxy-2-(4-isopropoxy-phenyl)-2-aza-spiro[4.5]decan-1-one], the IC50 came out at 0.02 µM.

Turning to `COc1ccc(CNC(=O)O[C@H]2CC[C@@]3(CCN(c4ccc(OC(F)(F)F)cc4)C3=O)CC2)cc1` [Example 13, (4-Methoxy-benzyl)-carbamic acid [(5α,8β)-1-oxo-2-(4-trifluoromethoxy-phenyl)-2-aza-spiro[4.5]dec-8-yl]ester], the IC50 stood at 0.09 µM.

With `C[C@]1(O)CC[C@]2(CCN(c3ccc(OCC(F)(F)F)cc3)C2=O)CC1` [Example 86, (5α,8α)-8-Hydroxy-8-methyl-2-[4-(2,2,2-trifluoro-ethoxy)-phenyl]-2-aza-spiro[4.5]decan-1-one], the IC50 was determined as 0.13 µM.

As for `CCCNC(=O)O[C@H]1CC[C@@]2(CCN(c3ccc(CC)cc3)C2=O)CC1` [Example 6, Propyl-carbamic acid [(5α,8β)-2-(4-ethyl-phenyl)-1-oxo-2-aza-spiro[4.5]dec-8-yl]ester], the half-maximal inhibitory concentration (IC50) was 0.1 µM.

On to `O=C1N(c2ccc(OC(F)(F)F)cc2)CC[C@]12CC[C@@](O)(CCO)CC2` [Example 118, (5α,8α)-8-Hydroxy-8-(2-hydroxy-ethyl)-2-(4-trifluoromethoxy-phenyl)-2-aza-spiro[4.5]decan-1-one], for which the IC50 is 0.1 µM.

For the molecule `CCO[C@H]1CC[C@]2(CCN(c3ccc(OC(F)(F)F)cc3)C2=O)CC1` [Example 41, (5α,8α)-8-Ethoxy-2-(4-trifluoromethoxy-phenyl)-2-aza-spiro[4.5]decan-1-one], the half-maximal inhibitory concentration (IC50) stood at 0.39 µM.

For `CC(C)C(O)[C@H]1CC[C@@]2(CCN(c3ccc(C(C)(C)C)cc3)C2=O)CC1` (stereo partly drawn) [Example 355, (5α,8β)-2-(4-tert-Butyl-phenyl)-8-(1-hydroxy-2-methyl-propyl)-2-aza-spiro[4.5]decan-1-one], the IC50 is 0.05 µM.

As for `CCCc1ccc(N2CC[C@]3(CC[C@](O)(CC)CC3)C2=O)cc1` [Example 84, (5α,8β)-8-Ethyl-8-hydroxy-2-(4-propyl-phenyl)-2-aza-spiro[4.5]decan-1-one], the IC50 is 4.3 µM.

Consider `CC(C)Oc1ccc(N2CC[C@]3(CC[C@@](O)(c4ccn(C)n4)CC3)C2=O)cc1` [Example 217, (5α,8α)-8-hydroxy-2-(4-isopropoxyphenyl)-8-(1-methyl-1H-pyrazol-3-yl)-2-aza-spiro[4.5]decan-1-one], for which the IC50 was 0.05 µM.

Consider `CCC[C@]1(O)CC[C@]2(CCN(c3ccc(OCC(F)(F)F)nc3)C2=O)CC1` [Example 167, (5α,8α)-8-Hydroxy-8-propyl-2-[6-(2,2,2-trifluoro-ethoxy)-pyridin-3-yl]-2-aza-spiro[4.5]decan-1-one], for which the IC50 is 0.04 µM.

With `CCOC[C@]1(O)CC[C@]2(CCN(c3ccc(OCC(F)(F)F)cc3)C2=O)CC1` [Example 234, (5α,8α)-8-Ethoxymethyl-8-hydroxy-2-[4-(2,2,2-trifluoro-ethoxy)phenyl]-2-aza-spiro[4.5]decan-1-one], the 50% inhibitory concentration (IC50) stood at 0.04 µM.

Regarding `C=Cc1nnn(C)c1[C@]1(O)CC[C@]2(CCN(c3ccc(OC(C)C)cc3)C2=O)CC1` [Example 222, (5α,8α)-8-hydroxy-2-(4-isopropoxyphenyl)-8-(1-methyl-4-vinyl-1H-1,2,3-triazol-5-yl)-2-aza-spiro[4.5]decan-1-one], the IC50 is 0.103 µM.

In the case of `CC[C@]1(O)CC[C@@]2(CCN(c3ccc(OCC(F)(F)F)cc3)C2=O)CC1` [Example 89, (5α,8β)-8-Ethyl-8-hydroxy-2-[4-(2,2,2-trifluoro-ethoxy)-phenyl]-2-aza-spiro[4.5]decan-1-one], the concentration for half-maximal inhibition (IC50) came out at 3.19 µM.

Take `CCCO[C@H]1CC[C@]2(CCN(c3ccc(OC(F)(F)F)cc3)C2=O)CC1` [Example 42, (5α,8α)-8-Propoxy-2-(4-trifluoromethoxy-phenyl)-2-aza-spiro[4.5]decan-1-one]: the IC50 was 0.32 µM.

For `COCCc1ccc(N2CC[C@]3(CC[C@@](O)(C(C)C)CC3)C2=O)cc1` [Example 128, (5α,8α)-8-Hydroxy-8-isopropyl-2-[4-(2-methoxy-ethyl)-phenyl]-2-aza-spiro[4.5]decan-1-one], the IC50 is 0.05 µM.

Take `O=C1N(c2ccc(OCC(F)(F)F)cc2)CC[C@]12CC[C@@](O)(COCc1ccccc1)CC2` [Example 242, (5α,8α)-8-Benzyloxymethyl-8-hydroxy-2-[4-(2,2,2-trifluoro-ethoxy)-phenyl]-2-aza-spiro[4.5]decan-1-one]: the IC50 is 0.01 µM.

As to `COC[C@]1(O)CC[C@]2(CCN(c3ccc([C@@H](O)C(F)(F)F)cc3)C2=O)CC1` [Example 138, (5α,8α)-8-Hydroxy-8-(methoxymethyl)-2-(4-((R)-2,2,2-trifluoro-1-hydroxyethyl)phenyl)-2-aza-spiro[4.5]decan-1-one], the 50% inhibitory concentration (IC50) was found to be 0.1 µM.

For `CS(=O)(=O)C[C@]1(O)CC[C@]2(CCN(c3ccc(OCC(F)(F)F)cc3)C2=O)CC1` [Example 304, (5α,8α)-8-Hydroxy-8-methanesulfonylmethyl-2-[4-(2,2,2-trifluoro-ethoxy)-phenyl]-2-aza-spiro[4.5]decan-1-one], the IC50 worked out at 0.33 µM.
